According to US20240327380A1, “BTK INHIBITORS” (BIOGEN MA INC., priority 2020, published 2024):

Biological target: T1, active BTK enzyme (Upstate 14-552) (Homo sapiens, UniProt Q06187)
T1 construct: purchased Upstate 14-552
Experiment: In Vitro BTK Kinase Assay: Btk-PolyGAT-LS Assay
Type: biochemical
Conditions: ATP 10 μM, polyGAT 100 nM, BTK 0.25 nM, 30 minutes, TRF readout
Description: In Vitro BTK Kinase Assay: Btk-PolyGAT-LS Assay The purpose of the BTK in vitro assay is to determine compound potency against BTK through the measurement of IC50. Compound inhibition is measured after monitoring the amount of phosphorylation of a fluorescein-labeled polyGAT peptide (Invitrogen PV3611) in the presence of active BTK enzyme (Upstate 14-552), ATP, and inhibitor. The BTK kinase reaction was done in a black 96 well plate (costar 3694). For a typical assay, a 24 μL aliquot of a ATP/peptide master mix (final concentration; ATP 10 μM, polyGAT 100 nM) in kinase buffer (10 mM Tris-HCl pH 7.5, 10 mM MgCl2, 200 μM […], 5 mM DTT, 0.01% Triton X-100, and 0.2 mg/ml casein) is added to each well. Next, […] of a 4-fold, 40× compound titration in 100% DMSO solvent is added, followed by adding 15 μL of BTK enzyme mix in 1× kinase buffer (with a final concentration of 0.25 nM). The assay is incubated for 30 minutes before being stopped with 28 μL of a 50 mM EDTA solution. Aliquots (5 μL) of the kinase reaction are transferred to a low volume white 384 well plate (Coming 3674), and 5 μL of a 2× detection buffer (Invitrogen PV3574, with 4 nM Tb-PY20 antibody, Invitrogen PV3552) is added. The plate is covered and incubated for 45 minutes at room temperature. Time resolved fluorescence (TRF) on Molecular Devices M5 (332 nm excitation; 488 nm emission; 518 nm fluorescein emission) is measured. IC50 values are calculated using a four parameter fit with 100% enzyme activity determined from the DMSO control and 0% activity from the EDTA control.

T1 sequence (Q06187 whole entry): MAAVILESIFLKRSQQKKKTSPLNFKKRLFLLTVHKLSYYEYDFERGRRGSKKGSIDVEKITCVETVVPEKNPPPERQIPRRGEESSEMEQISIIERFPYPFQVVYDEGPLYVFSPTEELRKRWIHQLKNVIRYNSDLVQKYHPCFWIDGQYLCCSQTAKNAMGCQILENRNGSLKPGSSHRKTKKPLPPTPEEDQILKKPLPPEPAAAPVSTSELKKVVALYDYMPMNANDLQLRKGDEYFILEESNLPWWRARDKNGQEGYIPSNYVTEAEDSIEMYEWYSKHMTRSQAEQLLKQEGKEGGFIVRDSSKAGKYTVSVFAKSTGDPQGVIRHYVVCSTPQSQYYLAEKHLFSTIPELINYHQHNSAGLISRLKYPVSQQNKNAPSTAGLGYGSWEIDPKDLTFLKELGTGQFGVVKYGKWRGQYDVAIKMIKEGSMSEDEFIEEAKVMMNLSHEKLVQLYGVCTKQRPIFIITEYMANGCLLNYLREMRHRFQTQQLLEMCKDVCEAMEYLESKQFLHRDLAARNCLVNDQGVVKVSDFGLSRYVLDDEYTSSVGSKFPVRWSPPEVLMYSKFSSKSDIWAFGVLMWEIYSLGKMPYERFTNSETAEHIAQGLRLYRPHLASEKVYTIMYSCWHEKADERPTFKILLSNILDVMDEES

IC50 | Compound
1 to 10 nM | C=CC(=O)N1CCN(c2cnccc2-c2ccc(CNC(=O)c3ccc(C(F)F)nc3)c(C)c2)CC1 [Example 97, N-(4-(3-(4-acryloylpiperazin-1-yl)pyridin-4-yl)-2-methylbenzyl)-6-(difluoromethyl)nicotinamide]
1 to 10 nM | Cc1cc(-c2ccncc2N2CCN(C(=O)/C=C/CN3CCOCC3)CC2)ccc1CNC(=O)c1noc(C(C)(C)C)n1 [Example 67, (E)-5-(tert-butyl)-N-(2-methyl-4-(3-(4-(4-morpholinobut-2-enoyl)piperazin-1-yl)pyridin-4-yl)benzyl)-1,2,4-oxadiazole-3-carboxamide]
≤ 1 nM | C=CC(=O)N1CCN(c2cncnc2-c2ccc(CNC(=O)c3nnn(C(C)(C)C)n3)c(C)c2)CC1 [Example 79, N-(4-(5-(4-acryloylpiperazin-1-yl)pyrimidin-4-yl)-2-methylbenzyl)-2-(tert-butyl)-2H-tetrazole-5-carboxamide]
≤ 1 nM | CN(C)C/C=C/C(=O)N1CCN(c2cnccc2-c2ccc(CNC(=O)c3nc(C(C)(C)C)no3)c(C(F)(F)F)c2)CC1 [Example 92, (E)-3-(tert-butyl)-N-(4-(3-(4-(4-(dimethylamino)but-2-enoyl)piperazin-1-yl)pyridin-4-yl)-2-(trifluoromethyl)benzyl)-1,2,4-oxadiazole-5-carboxamide]
> 10 nM | C=CC(=O)N1CC2CC1CN(c1cnccc1-c1ccc(CNC(=O)c3cn(C(C)(C)C)nn3)c(C)c1)C2 (stereo not drawn) [Example 54, 1-tert-butyl-N-[[2-methyl-4-[3-(6-prop-2-enoyl-3,6-diazabicyclo[3.2.1]octan-3-yl)-4-pyridyl]phenyl]methyl]triazole-4-carboxamide]
≤ 1 nM | C=CC(=O)N1CCN(c2cncnc2-c2ccc(CNC(=O)c3nc(C(C)(C)C)no3)c(C)c2)CC1 [Example 83, N-(4-(5-(4-acryloylpiperazin-1-yl)pyrimidin-4-yl)-2-methylbenzyl)-3-(tert-butyl)-1,2,4-oxadiazole-5-carboxamide]
1 to 10 nM | Cc1cc(-c2ccncc2N2CCN(C(=O)/C=C/CN3CC(F)C3)CC2)ccc1CNC(=O)c1noc(C(C)(C)C)n1 [Example 64, (E)-5-(tert-butyl)-N-(4-(3-(4-(4-(3-fluoroazetidin-1-yl)but-2-enoyl)piperazin-1-yl)pyridin-4-yl)-2-methylbenzyl)-1,2,4-oxadiazole-3-carboxamide]
≤ 1 nM | C=CC(=O)N(C)C1CCCN(c2cnccc2-c2ccc(CNC(=O)c3cnc(C(C)(C)C)o3)c(C)c2)C1 (stereo not drawn) [Example 38, 2-(tert-butyl)-N-(2-methyl-4-(3-(3-(N-methylacrylamido)piperidin-1-yl)pyridin-4-yl)benzyl)oxazole-5-carboxamide]
≤ 1 nM | C=CC(=O)N1CCN(c2cnccc2-c2ccc(CNC(=O)c3noc(C(C)(C)C)c3F)c(C)c2)CC1 [Example 96, N-(4-(3-(4-acryloylpiperazin-1-yl)pyridin-4-yl)-2-methylbenzyl)-5-(tert-butyl)-4-fluoroisoxazole-3-carboxamide]
≤ 1 nM | C=CC(=O)N(C)CC1CCN(c2cnccc2-c2ccc(CNC(=O)c3noc(C(C)(C)C)n3)c(C)c2)C1 (stereo not drawn) [Example 20, 5-(tert-butyl)-N-(2-methyl-4-(3-(3-((N-methylacrylamido)methyl)pyrrolidin-1-yl)pyridin-4-yl)benzyl)-1,2,4-oxadiazole-3-carboxamide]
1 to 10 nM | Cc1cc(-c2ccncc2N2CCN(C(=O)/C=C/CN3CCN(C)CC3)CC2)ccc1CNC(=O)c1noc(C(C)(C)C)n1 [Example 65, (E)-5-(tert-butyl)-N-(2-methyl-4-(3-(4-(4-(4-methylpiperazin-1-yl)but-2-enoyl)piperazin-1-yl)pyridin-4-yl)benzyl)-1,2,4-oxadiazole-3-carboxamide]
1 to 10 nM | Cc1cc(-c2c(F)cncc2N2CCN(C(=O)/C=C/CN(C)C)CC2)ccc1CNC(=O)c1noc(C2(C)CC2)n1 [Example 77, (E)-N-(4-(3-(4-(4-(dimethylamino)but-2-enoyl)piperazin-1-yl)-5-fluoropyridin-4-yl)-2-methylbenzyl)-5-(1-methylcyclopropyl)-1,2,4-oxadiazole-3-carboxamide]
> 10 nM | C=CC(=O)N1CCC2(CCN(c3cnccc3-c3ccc(CNC(=O)c4cn(C)nc4C(F)F)c(C)c3)C2)C1 (stereo not drawn) [Example 5, N-(4-(3-(7-acryloyl-2,7-diazaspiro[4.4]nonan-2-yl)pyridin-4-yl)-2-methylbenzyl)-3-(difluoromethyl)-1-methyl-1H-pyrazole-4-carboxamide]
≤ 1 nM | CN(C)C/C=C/C(=O)N1CCN(c2cnccc2-c2ccc(CNC(=O)c3nc(C(C)(C)C)no3)c(C(F)F)c2)CC1 [Example 89, (E)-3-(tert-butyl)-N-(2-(difluoromethyl)-4-(3-(4-(4-(dimethylamino)but-2-enoyl)piperazin-1-yl)pyridin-4-yl)benzyl)-1,2,4-oxadiazole-5-carboxamide]
> 10 nM | C=CC(=O)N1CC2(C1)CN(c1cnccc1-c1ccc(CNC(=O)c3noc(C(C)(C)C)n3)c(C)c1)C2 [Example 6, N-(4-(3-(6-acryloyl-2,6-diazaspiro[3.3]heptan-2-yl)pyridin-4-yl)-2-methylbenzyl)-5-(tert-butyl)-1,2,4-oxadiazole-3-carboxamide]

Continued, compound first:

Compound | IC50
C=CC(=O)N(C)[C@@H]1CCC(=O)N(c2cnccc2-c2ccc(CNC(=O)c3nnn(C(C)(C)C)n3)c(C)c2)C1 (single isomer, unassigned) [Example 53 Peak 2] | > 10 nM
C=CC(=O)N1CCN(c2cnccc2-c2ccc(CNC(=O)c3noc(C4(C(F)F)CC4)n3)c(C)c2)CC1 [Example 99, N-(4-(3-(4-acryloylpiperazin-1-yl)pyridin-4-yl)-2-methylbenzyl)-5-(1-(difluoromethyl)cyclopropyl)-1,2,4-oxadiazole-3-carboxamide] | ≤ 1 nM
C=CC(=O)N(C)[C@@H]1CCCN(c2cncc(C#N)c2-c2ccc(CNC(=O)c3cn(C(C)(C)C)nn3)c(C)c2F)C1 [Example 47, 1-(tert-butyl)-N-(4-(3-cyano-5-((R)-3-(N-methylacrylamido)piperidin-1-yl)pyridin-4-yl)-3-fluoro-2-methylbenzyl)-1H-1,2,3-triazole-4-carboxamide] | ≤ 1 nM
Cc1cc(-c2ccncc2N2CCN(C(=O)C3CO3)CC2)ccc1CNC(=O)c1noc(C(C)(C)C)n1 (stereo not drawn) [Example 59, 5-(tert-butyl)-N-(2-methyl-4-(3-(4-(oxirane-2-carbonyl)piperazin-1-yl)pyridin-4-yl)benzyl)-1,2,4-oxadiazole-3-carboxamide] | 1 to 10 nM
CC#CC(=O)N1CCN(c2cnccc2-c2ccc(CNC(=O)c3noc(C(C)(C)C)n3)c(C)c2)CC1 [Example 62, N-(4-(3-(4-(but-2-ynoyl)piperazin-1-yl)pyridin-4-yl)-2-methylbenzyl)-5-(tert-butyl)-1,2,4-oxadiazole-3-carboxamide] | ≤ 1 nM
Cc1cc(-c2ccncc2N2CCN(C(=O)/C=C/CN(C)C)C(C(F)(F)F)C2)ccc1CNC(=O)c1noc(C(C)(C)C)n1 (stereo not drawn) [Example 75, (E)-5-(tert-butyl)-N-(4-(3-(4-(4-(dimethylamino)but-2-enoyl)-3-(trifluoromethyl)piperazin-1-yl)pyridin-4-yl)-2-methylbenzyl)-1,2,4-oxadiazole-3-carboxamide] | ≤ 1 nM
Cc1cc(-c2c(C#N)cncc2N2CCN(C(=O)/C=C/CN(C)C)CC2)ccc1CNC(=O)c1cc(C(C)(C)C)on1 [Example 70, (E)-5-(tert-butyl)-N-(4-(3-cyano-5-(4-(4-(dimethylamino)but-2-enoyl)piperazin-1-yl)pyridin-4-yl)-2-methylbenzyl)isoxazole-3-carboxamide] | 1 to 10 nM
C=CC(=O)N1CCC[C@@H](c2cnccc2-c2ccc(CNC(=O)c3nc(C4(C)CC4)no3)c(C)c2)C1 (single isomer, unassigned) [Example 31] | > 10 nM
Cc1cc(-c2c(F)cncc2N2CCN(C(=O)/C=C/CN(C)C)CC2)ccc1CNC(=O)c1noc(C(C)(C)C)n1 [Example 76, (E)-5-(tert-butyl)-N-(4-(3-(4-(4-(dimethylamino)but-2-enoyl)piperazin-1-yl)-5-fluoropyridin-4-yl)-2-methylbenzyl)-1,2,4-oxadiazole-3-carboxamide] | ≤ 1 nM
C=CC(=O)N(C)C1CCCN(c2cnccc2-c2ccc(CNC(=O)c3ncc(C(C)(C)C)o3)c(C)c2)C1 (stereo not drawn) [Example 45, 5-(tert-butyl)-N-(2-methyl-4-(3-(3-(N-methylacrylamido)piperidin-1-yl)pyridin-4-yl)benzyl)oxazole-2-carboxamide] | ≤ 1 nM
CNC/C=C/C(=O)N1CCN(c2cnccc2-c2ccc(CNC(=O)c3noc(C(C)(C)C)n3)c(C)c2)CC1 [Example 68, (E)-5-(tert-butyl)-N-(2-methyl-4-(3-(4-(4-(methylamino)but-2-enoyl)piperazin-1-yl)pyridin-4-yl)benzyl)-1,2,4-oxadiazole-3-carboxamide] | 1 to 10 nM
C=CC(=O)N1CCC[C@H](c2cnccc2-c2ccc(CNC(=O)c3noc(C4(C)CC4)n3)c(C)c2)C1 (single isomer, unassigned) [Example 27] | > 10 nM
